Experimental findings from EP0770681A2, “T cell epitopes of the major allergens from ambrosia artemisiifolia” (IMMULOGIC PHARMACEUTICAL CORPORATION, priority 1992, dated 1993) are described below.

No end group written: not given here.

Data set [1] relates to Amb a I.1 stimulated T cell line plus APC. The experiment in a line: assessment of peptide toxicity in Amb a I.1 primed secondary T cell culture. The class given is cell-based, human. Here is the method:
This could reflect a potential toxic effect of the peptides in the T cell assays. To investigate this possibility, an assay was conducted to determine the ability of the peptides to inhibit T cell proliferation. Inhibition was defined as proliferation of a T cell line in response to the peptide which was less than half the proliferation of media control T cell lines plus autologous EBV transformed antigen presenting cells. […]

Data set [2] relates to basophils present in heparinized whole blood. The experiment in a line: histamine release assay. Particulars: blood of ragweed-allergic patient #1273, similar in seven other patients; Amb a I.1 from 10 µg/ml in 10-fold dilutions, peptides 50 µg/ml to 0.08 µg/ml. The class given is cell-based, human. The protocol: The histamine release assay used for these studies is based on the detection of an acylated derivative of histamine using a specific monoclonal antibody (Morel, A.M. and Delaage, M.A. (1988) J. Allergy Clin. Immunol. 82:646-654). The assay was performed in two steps: 1) the release of histamine from basophils present in heparinized whole blood in the presence of different concentrations of protein or peptide; and 2) the assay of histamine present in the supernatants of the release reactions following cell removal by centrifugation. The reagents for this second step are available commercially as a competitive radioimmunoassay from AMAC Inc. (Westbrook, ME).
Heparinized whole blood was drawn from ragweed allergic patients. […] The tubes were then centrifuged in a microfuge at 1500 RPM for 3 minutes and the supernatants were carefully removed and analyzed or stored at -20°C for later analysis. […]
For the competition radioimmunoassay, a 50 µl aliquot of each release supernatant was mixed with 150 µl of histamine release buffer (supplied with the kit from AMAC). […] The solutions were aspirated from the tubes and the radioactivity bound to the tube was measured on a gamma counter (Cobra 5005, Beckman, Inc.) for two minutes per tube. […]
Six or more 10-fold dilutions of Amb a I.1 starting at 10 µg/ml (approximately 0.66 µM) were analyzed. […]

Another data set is described as follows: peptide solubility. Format: physicochemical. Particulars: compared among Amb 2-18.1, Amb2-19.1, Amb2-20.1 and Amb2-21.1. The text has this: Peptides Amb 2-18.1 (SEQ ID NO:126), Amb2-19.1 (SEQ ID NO:127), Amb2-20.1 (SEQ ID NO:128) and Amb2-21.1 (SEQ ID NO:129) correspond to different lengths of the original peptide which were synthesized (including the serine substitution at position 212) and analyzed to determine solubility. […] Thus, substitutions and/or amino acid additions to this peptide were made in order to further increase the solubility while maintaining T cell reactivity. For example, in peptides Amb2-22.1 (SEQ ID NO:130) and Amb2-23.1 (SEQ ID NO:131) isoleucine at position 201 was substituted with glutamic acid (Amb2-22.1) or lysine (Amb2-23.1) to lower the pI of the resulting peptide and avoid precipitation of the peptide at physiological pH. Similarly, the following peptides were also synthesized with various substitutions or additions designed to decrease the pI and increase the hydrophilicity of the peptide, each is shown in Figure 25: Amb2-26.1 (SEQ ID NO:132); Amb2-28.1 (SEQ ID NO:133); Amb2-30.1 (SEQ ID NO:134); Amb2-32.1 (SEQ ID NO:135); Amb2-33.1 (SEQ ID NO:136); Amb2-34.1 (SEQ ID NO:137); Amb2-35.1 (SEQ ID NO:138); Amb2-36.1 (SEQ ID NO:139); Amb2-37.1 (SEQ ID NO:140); and Amb2-38.1 (SEQ ID NO:141).

Take KGTVGGKDGDIYTVTSELDDDVAN [AMB 1-2.1]: in data set [1] (patients with toxicity (proliferation less than half of media control) / patients tested), the “# patients” value is 3/46. Also, the “(%)patients” value in data set [1] (percent of patients with toxicity (proliferation less than half of media control)) is 7%. For the same sequence, the both in data set [1] (toxicity at 5 µg/ml and 50 µg/ml peptide, fraction of patients with toxicity) is reported as 0. Besides, the low dose only in data set [1] (toxicity only at 5 µg/ml peptide, fraction of patients with toxicity) is recorded as 2/3. In addition, in data set [1] (toxicity only at 50 µg/ml peptide, fraction of patients with toxicity), the high dose only is given as 1/3. For the same sequence, the histamine release entry in data set [2] is given as “no discernible histamine release”.
As to SISGSSQIWIDHSSLSKS [AMB2-19.1], the solubility result in the data set “peptide solubility” is “most soluble”.
